Experimental data as given in patent US9988430B2, “Stable GLP-1 based GLP-1/glucagon receptor co-agonists” (Novo Nordisk A/S, priority 2014, dated 2018).
*1 amine or outer side, *2 acyl side, *3 side chain or, on linkers, in order; H or OH if unused. Where a SMILES comes first, the peptide text is derived from it. Bridges are numbered along the chain shown (N, C = ends). Roman numbers before positions name the chains, in order. Side-chain parts run from the residue outwards. [ ]: non-standard residue; d: D form. The star is where a group is joined. C18 diacid = O=C(O)CCCCCCCCCCCCCCCCC(=O)*; γGlu = O=C(O)[C@H](CCC(=O)[*:2])N[*:1]; Desaminohistidyl = O=C(CCc1c[nH]cn1)*; Ac4c = NC1(C(=O)O)CCC1; AEEA = NCCOCCOCC(=O)O

What was measured:
human GLP-1 receptor [1] = biological target: T1, human GLP-1 receptor (Homo sapiens, UniProt P43220); experiment: Assay (I)(a): GLP-1 receptor potency, CRE luciferase reporter gene assay in BHK cells; assay type: cell-based; settings: BHK cells expressing human GLP-1 receptor, read-out: EC50 GLP-1R
T1 construct: expressed in transfected cells; host or cells: membranes of BHK cells, parent line BHKTS13, clone FCW467-12A
T1 sequence (P43220 24-463): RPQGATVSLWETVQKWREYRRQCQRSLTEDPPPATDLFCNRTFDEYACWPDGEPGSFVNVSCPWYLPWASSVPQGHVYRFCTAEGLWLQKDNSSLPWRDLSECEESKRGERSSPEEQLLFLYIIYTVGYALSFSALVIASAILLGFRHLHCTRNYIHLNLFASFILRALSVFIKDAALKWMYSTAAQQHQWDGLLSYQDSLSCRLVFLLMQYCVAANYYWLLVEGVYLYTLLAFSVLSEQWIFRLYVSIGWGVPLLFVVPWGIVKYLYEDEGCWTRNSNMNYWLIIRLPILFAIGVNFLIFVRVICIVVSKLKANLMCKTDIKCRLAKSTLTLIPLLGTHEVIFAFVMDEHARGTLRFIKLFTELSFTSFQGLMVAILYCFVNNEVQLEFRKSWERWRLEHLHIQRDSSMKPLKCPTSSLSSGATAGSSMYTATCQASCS
In short: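 BHK cells (clone FCW467-12A/KZ10-1), 5×10EE3/well, exposed 3 h at 37° C to compound at 1×10EE-13 to 1×10EE-6 M final in medium with 2% ovalbumin and 0.2% Pluronic F-68. Luciferase luminescence read; EC50 (pM) from four-parameter fit.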

[2] = Assay (V): chemical stability assessment by RP-UPLC; assay type: physicochemical; settings: 14 days at 37° C. in phosphate buffer (pH 7.3)
Protocol: Assay (V): Chemical Stability Assessment
The purpose of this assay is to assess the chemical stability of the GLP-1 derivatives of the present invention in aqueous solutions.
Chemical stability of GLP-1 derivatives may be investigated by RP-UPLC separation and UV detection. Lyophilized samples are dissolved in a 8 mM Phosphate buffer pH 8.6, followed by adjustment to pH 7.3 using HCl to a final concentration of 333 μM. Samples are incubated for 14 days at 5° C. and 37° C. followed by RP-UPLC analysis. Purity is defined as the area percentage of the main peak in relation to the total area of all integrated peaks in each chromatogram. Purity loss, also referred to herein as chemical degradation, after 14 days at 37° C. is determined as the difference in purity between the samples incubated at 5° C. and 37° C., divided by the purity of the sample after incubation for 14 days at 5° C.
RP-UPLC analysis is performed using a Waters BEH130 2.1 mm×150 mm, 1.7 μm column operated at 50° C. and a flow rate of 0.4 mL/min using a mobile phase system consisting of A: 0.05% TFA in MQ-water, and B: 0.05% TFA in Acetonitrile. UV-detection is performed at 215 nm. The typical gradient profile used for most of the samples is shown below.
For some individual derivatives eluting at substantially different retention times compared with the majority of derivatives, some adjustments to the gradient profile are made to better enable purity assessment comparison across samples.

human GLP-1 receptor [3] = biological target: T1, human GLP-1 receptor; experiment: Assay (II)(a): GLP-1 receptor binding, [125I]GLP-1 displacement, SPA on BHK membranes; settings: displacement of [125I]GLP-1, membranes with human GLP-1 receptor; read-out: IC50 GLP-1R
In short: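 Membranes from BHK cells expressing human GLP-1 receptor with WGA SPA beads, [125I]GLP-1(7-36)NH2 (480 pM added solution) and compound in HEPES pH 7.4 buffer with EGTA, MgCl2, Tween 20. Incubated 2 h at 30° C; SPA counts fitted by non-linear regression to IC50 in nM.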

Compound	EC50 (human GLP-1 receptor [1]) [pM]	Chemical stability: Chemical degradation over 14 days at 37° C. [2] [%]	IC50 (human GLP-1 receptor [3]) [pM]
CC[C@H](C)[C@H](NC(=O)[C@H](Cc1ccccc1)NC(=O)[C@H](CCC(=O)O)NC(=O)[C@H](CCCNC(=N)N)NC(=O)[C@H](C)NC(=O)[C@H](C)NC(=O)[C@H](CCC(N)=O)NC(=O)[C@H](CCC(=O)O)NC(=O)[C@H](CCC(=O)O)NC(=O)[C@H](CC(C)C)NC(=O)[C@H](Cc1ccc(O)cc1)NC(=O)[C@H](CCCCN)NC(=O)[C@H](CO)NC(=O)[C@H](Cc1ccc(O)cc1)NC(=O)[C@H](CC(=O)O)NC(=O)[C@H](CO)NC(=O)[C@@H](NC(=O)[C@H](Cc1ccccc1)NC(=O)[C@@H](NC(=O)CNC(=O)[C@H](Cc1c[nH]cn1)NC(=O)C1(NC(=O)CCc2c[nH]cn2)CCC1)[C@@H](C)O)[C@@H](C)O)C(=O)N[C@@H](C)C(=O)N[C@@H](Cc1c[nH]c2ccccc12)C(=O)N[C@@H](CC(C)C)C(=O)N[C@@H](CC(C)C)C(=O)N[C@@H](CCCCN)C(=O)N[C@@H](CCCCNC(=O)CC[C@H](NC(=O)COCCOCCNC(=O)CC[C@H](NC(=O)COCCOCCNC(=O)CC[C@H](NC(=O)COCCOCCNC(=O)CC[C@H](NC(=O)CC[C@H](NC(=O)CCCCCCCCCCCCCCCCC(=O)O)C(=O)O)C(=O)O)C(=O)O)C(=O)O)C(=O)O)C(N)=O [Example 21, N^ε35-[(4S)-4-carboxy-4-[[2-[2-[2-[[(4S)-4-carboxy-4-[[2-[2-[2-[[(4S)-4-carboxy-4-[[2-[2-[2-[[(4S)-4-carboxy-4-[[(4S)-4-carboxy-4-(17-carboxyheptadecanoylamino)butanoyl]amino]butanoyl]amino]ethoxy]ethoxy]acetyl]amino]butanoyl]amino]ethoxy]ethoxy]acetyl]amino]butanoyl]amino]ethoxy]ethoxy]acetyl]amino]butanoyl]-[Imp7,Acb8,His9,Tyr16,Lys18,Glu22,Arg26,Leu33,Lys35]-GLP-1-(7-35)-peptide amide] (Desaminohistidyl-[Ac4c]HGTFTSDYSKYLEEQAAREFIAWLLKK([γGlu-AEEA-γGlu-AEEA-γGlu-AEEA-γGlu-γGlu-C18 diacid])-NH2)	3	1.6	–
CC[C@H](C)[C@H](NC(=O)[C@H](Cc1ccccc1)NC(=O)[C@H](CCC(=O)O)NC(=O)[C@H](CCCNC(=N)N)NC(=O)[C@H](C)NC(=O)[C@H](C)NC(=O)[C@H](CCC(N)=O)NC(=O)[C@H](CCC(=O)O)NC(=O)[C@H](CCC(=O)O)NC(=O)[C@H](CC(C)C)NC(=O)[C@H](Cc1ccc(O)cc1)NC(=O)[C@H](CCCCN)NC(=O)[C@H](CO)NC(=O)[C@H](Cc1ccc(O)cc1)NC(=O)[C@H](CC(=O)O)NC(=O)[C@H](CO)NC(=O)[C@@H](NC(=O)[C@H](Cc1ccccc1)NC(=O)[C@@H](NC(=O)CNC(=O)[C@H](Cc1c[nH]cn1)NC(=O)C1(NC(=O)CCc2c[nH]cn2)CCC1)[C@@H](C)O)[C@@H](C)O)C(=O)N[C@@H](C)C(=O)N[C@@H](Cc1c[nH]c2ccccc12)C(=O)N[C@@H](CC(C)C)C(=O)N[C@@H](CC(C)C)C(=O)N[C@@H](CCCCN)C(=O)N[C@@H](CCCCNC(=O)CNC(=O)[C@H](CO)NC(=O)[C@H](CCC(=O)O)NC(=O)CNC(=O)[C@H](CO)NC(=O)CC[C@H](NC(=O)CC[C@H](NC(=O)CCCCCCCCCCCCCCCCC(=O)O)C(=O)O)C(=O)O)C(N)=O [Example 1, N^ε35-[2-[[(2S)-2-[[(2S)-4-carboxy-2-[[2-[[(2S)-2-[[(4S)-4-carboxy-4-[[(4S)-4-carboxy-4-(17-carboxyheptadecanoylamino)butanoyl]amino]butanoyl]amino]-3-hydroxypropanoyl]amino]acetyl]amino]butanoyl]amino]-3-hydroxypropanoyl]amino]acetyl]-[Imp7,Acb8,His9,Tyr16,Lys18,Glu22,Arg26,Leu33,Lys35]-GLP-1-(7-35)-peptide amide] (I: Desaminohistidyl-[Ac4c]HGTFTSDYSKYLEEQAAREFIAWLLKK-NH2 / II: {C18 diacid-γGlu-γGlu}-SGESG; amide I:28-II:C)	–	1.5	700
CC[C@H](C)[C@H](NC(=O)[C@H](Cc1ccccc1)NC(=O)[C@H](CCC(=O)O)NC(=O)[C@H](CCCNC(=N)N)NC(=O)[C@H](C)NC(=O)[C@H](C)NC(=O)[C@H](CCCNC(=N)N)NC(=O)[C@H](CCCNC(=N)N)NC(=O)[C@H](CCC(=O)O)NC(=O)[C@H](CC(C)C)NC(=O)[C@H](Cc1ccc(O)cc1)NC(=O)[C@H](CCCCN)NC(=O)[C@H](CO)NC(=O)[C@H](Cc1ccc(O)cc1)NC(=O)[C@H](CC(=O)O)NC(=O)[C@H](CO)NC(=O)[C@@H](NC(=O)[C@H](Cc1ccccc1)NC(=O)[C@@H](NC(=O)CNC(=O)[C@H](Cc1c[nH]cn1)NC(=O)C1(NC(=O)CCc2c[nH]cn2)CCC1)[C@@H](C)O)[C@@H](C)O)C(=O)N[C@@H](C)C(=O)N[C@@H](Cc1c[nH]c2ccccc12)C(=O)N[C@@H](CC(C)C)C(=O)N[C@@H](CC(C)C)C(=O)N[C@@H](CCCCN)C(=O)N[C@@H](CCCCNC(=O)CC[C@H](NC(=O)COCCOCCNC(=O)CC[C@H](NC(=O)COCCOCCNC(=O)CC[C@H](NC(=O)COCCOCCNC(=O)CC[C@H](NC(=O)CC[C@H](NC(=O)CCCCCCCCCCCCCCCCC(=O)O)C(=O)O)C(=O)O)C(=O)O)C(=O)O)C(=O)O)C(N)=O [Example 24, N^ε35-[(4S)-4-carboxy-4-[[2-[2-[2-[[(4S)-4-carboxy-4-[[2-[2-[2-[[(4S)-4-carboxy-4-[[2-[2-[2-[[(4S)-4-carboxy-4-[[(4S)-4-carboxy-4-(17-carboxyheptadecanoylamino)butanoyl]amino]butanoyl]amino]ethoxy]ethoxy]acetyl]amino]butanoyl]amino]ethoxy]ethoxy]acetyl]amino]butanoyl]amino]ethoxy]ethoxy]acetyl]amino]butanoyl]-[Imp7,Acb8,His9,Tyr16,Lys18,Arg22,Arg23,Arg26, Leu33, Lys35]-GLP-1-(7-35)-peptide amide] (Desaminohistidyl-[Ac4c]HGTFTSDYSKYLERRAAREFIAWLLKK([γGlu-AEEA-γGlu-AEEA-γGlu-AEEA-γGlu-γGlu-C18 diacid])-NH2)	8	2.2	–
